Results reported in US20150366836A1, “METHOD AND PHARMACEUTICAL COMPOSITION FOR TREATING COLORECTAL CANCER” (National Dong Hua University, priority 2014, published 2015).

Columns and labels:
[1] = system: mouse bearing inflammatory bowel disease (IBD), AOM/DSS induced; test: Mouse model bearing IBD (AOM/DSS induced), body weight and H&E staining of intestine; format: in vivo, C57/BL6 mice
Method: The animal experiments were approved by the National Dong-Hwa University Animal Ethics Committee and the experimental protocols were used according to the “Guide for the Care and Use of Laboratory Animals” of National Dong-Hwa University. On day 0, C57/BL6 mice (6-8 weeks old) were weighted and injected (intraperitoneal; i.p.) with 10 mg/kg body weight of azoxymethane (AOM) and then fed with 2% Dextran sodium sulfate solution (DSS solution) via water every day for 7 days. On day 8, the 2% DSS solution was changed to normal water for another 7 days. The cycle of DSS solution and water was repeated and the induction procedure was completed on day 35.
After the establishment of IBD in the experimental mice (on day 35), the mice were injected (i.p.) with 5-FU (15 mg/kg body weight) or HCD (0.64, 1.6, or 6.4 mg/kg body weight) once every three days for additional 30 days. Then, the mice were sacrificed. The colon, spleen, liver, and kidney thereof were immediately removed, observed, and further examined by H&E staining.

[2] = system: HT-29 cells; test: MTT assay cell viability, HT-29 cells; format: cell-based; conditions: Homo sapiens; HT-29 cells, 36 hr treatment
Method: (§1) Two cell lines were used in this study, Caco2 cells and HT-29 cells. Both of them are colorectal cancer cells. Caco2 cells and HT-29 cells were maintained in DMEM (or RPMI) supplemented with 20% or 10% fetal bovine serum (FBS; GIBCO), pH 7.4 at 37° C. with continuous circulation of 5% CO2 incubator. The medium was changed every 2 days and the cells were trypsinized using trypsin/EDTA when reaching 80%-90% confluence.
(§2) In this example, the effects of HCD, PG, and 5-FU on the viability of Caco2 cells and HT-29 cells were examined. The MTT assay was employed for this purpose. The MTT (3-(4-,5-dimethylthiazol-2-yl)-2,5-diphenyltetrazolium bromide) assay is a common colorimetric method in the field for cell viability analysis. MTT (yellow tetrazolium salt) is reduced to a purple formazan by living cells and detection to the purple formazan can be calculated as the cell viability.
(§3) Briefly, cells (Caco2 or HT-29) were seeded in 96-well plate (7×10^3 cell per well) and incubated overnight (37° C., 5% CO2).
(§4) On the other hand, in the pretreatment analysis, cells (Caco2 or HT-29) were seeded in 96-well plate (7×10^3 cell per well) and incubated overnight (37° C., 5% CO2). In according to the treatments listed in the Table 1, Cells were pre-treated by HCD or PG for 6, 12, 24, 36, or 48 hr and then were treated by 5-FU for additional 24 hr.

[3] = system: Caco2 cells; test: Cell cycle analysis by flow cytometer (PI staining), Caco2 cells; format: cell-based
Method: (§5) The results of Example 2 in cell viability hinted the effects of HCD, PG, and 5-FU on arresting cell cycle. In this example, the phase of cell cycle of Caco2 and HT-29 cells after the treatment listed in Table 1 was determined by flow cytometer. Briefly, 7×10^4 cells per well were inoculated in 12-wells plate and incubated overnight at 37° C., 5% CO2. Then, cells were treated according to the treatment listed in Table 1 by indicated time period. After treatment, cells were harvested by trypsin and fixed with 70% ethanol at −20° C. for at least 3 hr. The cells were washed in cold PBS twice and then incubated with 1 mL (v/v) staining solution (20 μg/mL propidium iodide (PI), 0.1% Triton X-100, 0.2 mg/mL Rnase) at 37° C. for 30 minutes. Lastly, cells were analyzed by flow cytometer (Cytomics™ FC500, Backman, Fullerton, Calif., USA). Data from 10,000 cells were collected for each experimental group.

[4] = system: Caco2 cells; test: MTT assay cell viability, Caco2 cells; format: cell-based; conditions: Homo sapiens, Caco-2; Caco2 cells, 48 hr treatment
Method: as §1, §2, §3, §4

[5] = system: HT-29 cells; test: Cell cycle analysis by flow cytometer (PI staining), HT-29 cells; format: cell-based
Method: as §5

IC50 [2]: 50 µM | IC50 [4]: 100 µM
SMILES: O=c1[nH]cc(F)c(=O)[nH]1 [5-FU, 5-Fluorouracil]
intestine villus arrangement (H&E staining) ([1]; 15 mg/kg body weight i.p.): irregular arrangement of villus | lymph node (H&E staining) ([1]; 15 mg/kg body weight i.p.): enlarged | body weight ([1]; 15 mg/kg body weight i.p. once every three days, 30 days): initially reduced | cell cycle arrest at sub-G1 phase vs control (in words) ([3]; Caco2): increased cell cycle arrest at sub-G1 phase | G0/G1 (%) ([3]; Caco2, 0.5 μM, 36 hr): 46.15 ± 1.34 % | G2/M (%) ([3]; Caco2, 0.5 μM, 36 hr): 8.65 ± 1.48 % | S (%) ([3]; Caco2, 0.5 μM, 36 hr): 20.05 ± 1.91% | Sub G1 (%) ([3]; Caco2, 0.5 μM, 36 hr): 21.8 ± 5.09% | G0/G1 (%) ([3]; Caco2, 0.5 μM, 48 hr): 46.15 ± 1.34% | G2/M (%) ([3]; Caco2, 0.5 μM, 48 hr): 1.5 ± 0.14 % | S (%) ([3]; Caco2, 0.5 μM, 48 hr): 13.65 ± 1.34% | Sub G1 (%) ([3]; Caco2, 0.5 μM, 48 hr): 20.9 ± 3.25% | G0/G1 (%) ([3]; Caco2, 2 μM, 36 hr): 36.65 ± 1.06 % | G2/M (%) ([3]; Caco2, 2 μM, 36 hr): 1.85 ± 0.5 % | S (%) ([3]; Caco2, 2 μM, 36 hr): 17.1 ± 2.12% | Sub G1 (%) ([3]; Caco2, 2 μM, 36 hr): 40.1 ± 1.69 % | G0/G1 (%) ([3]; Caco2, 2 μM, 48 hr): 35.35 ± 2.47 % | G2/M (%) ([3]; Caco2, 2 μM, 48 hr): 3.55 ± 3.89 % | S (%) ([3]; Caco2, 2 μM, 48 hr): 18.05 ± 10.11% | Sub G1 (%) ([3]; Caco2, 2 μM, 48 hr): 37.55 ± 14.64 % | G0/G1 (%) ([3]; Caco2, 5 μM, 36 hr): 39.1 ± 5.66 % | G2/M (%) ([3]; Caco2, 5 μM, 36 hr): 1.05 ± 0.21% | S (%) ([3]; Caco2, 5 μM, 36 hr): 12.5 ± 0.71% | Sub G1 (%) ([3]; Caco2, 5 μM, 36 hr): 42.6 ± 5.37 % | G0/G1 (%) ([3]; Caco2, 5 μM, 48 hr): 36.7 ± 8.06 % | G2/M (%) ([3]; Caco2, 5 μM, 48 hr): 2.7 ± 2.95 % | S (%) ([3]; Caco2, 5 μM, 48 hr): 17.5 ± 10.47% | Sub G1 (%) ([3]; Caco2, 5 μM, 48 hr): 38.3 ± 24.47 % | cell cycle arrest at sub-G1 phase vs control (in words) ([5]; HT-29): increased cell cycle arrest at sub-G1 phase | G0/G1 (%) ([5]; HT-29, 0.5 μM, 24 hr): 40.05 ± 0.35 % | G2/M (%) ([5]; HT-29, 0.5 μM, 24 hr): 17.45 ± 3.04% | S (%) ([5]; HT-29, 0.5 μM, 24 hr): 28.65 ± 1.20 % | Sub G1 (%) ([5]; HT-29, 0.5 μM, 24 hr): 6.75 ± 0.35% | G0/G1 (%) ([5]; HT-29, 0.5 μM, 36 hr): 46.15 ± 1.34 % | G2/M (%) ([5]; HT-29, 0.5 μM, 36 hr): 8.65 ± 1.48 % | S (%) ([5]; HT-29, 0.5 μM, 36 hr): 20.05 ± 1.91% | Sub G1 (%) ([5]; HT-29, 0.5 μM, 36 hr): 21.8 ± 5.09% | G0/G1 (%) ([5]; HT-29, 2 μM, 24 hr): 50.3 ± 0.85% | G2/M (%) ([5]; HT-29, 2 μM, 24 hr): 9.15 ± 0.78 % | S (%) ([5]; HT-29, 2 μM, 24 hr): 26.15 ± 1.77 % | Sub G1 (%) ([5]; HT-29, 2 μM, 24 hr): 7.75 ± 0.21% | G0/G1 (%) ([5]; HT-29, 2 μM, 36 hr): 36.65 ± 1.06 % | G2/M (%) ([5]; HT-29, 2 μM, 36 hr): 1.85 ± 0.5 % | S (%) ([5]; HT-29, 2 μM, 36 hr): 17.1 ± 2.12% | Sub G1 (%) ([5]; HT-29, 2 μM, 36 hr): 40.1 ± 1.69 % | G0/G1 (%) ([5]; HT-29, 5 μM, 24 hr): 56.65 ± 6.01% | G2/M (%) ([5]; HT-29, 5 μM, 24 hr): 9.4 ± 3.68 % | S (%) ([5]; HT-29, 5 μM, 24 hr): 21.45 ± 2.33 % | Sub G1 (%) ([5]; HT-29, 5 μM, 24 hr): 6.85 ± 0.64% | G0/G1 (%) ([5]; HT-29, 5 μM, 36 hr): 39.1 ± 5.66 % | G2/M (%) ([5]; HT-29, 5 μM, 36 hr): 1.05 ± 0.21% | S (%) ([5]; HT-29, 5 μM, 36 hr): 12.5 ± 0.71% | Sub G1 (%) ([5]; HT-29, 5 μM, 36 hr): 42.6 ± 5.37 %
